The record followed here is ChEMBL document CHEMBL1132003, “2-chloro-3-substituted-1,4-naphthoquinone inactivators of human cytomegalovirus protease” (Bioorg Med Chem Lett, 1999).

Test [1] has as its system HCMV protease (assemblin, Human betaherpesvirus 5). Kind of test: Inhibitory activity against HCMV protease by SPA assay at 150 uM concentration.
Test [2] deals with MRC5. Kind of test: Inhibitory activity against HCMV in a plaque assay(strain in MRC-5 cells). The settings on record: Homo sapiens. In kind it is functional, cell-based.
Test [3] deals with MRC5. Kind of test: Inhibitory activity against HCMV protease in a plaque assay (strain AD169 in MRC-5 cells). The settings on record: Homo sapiens. In kind it is functional, cell-based.
The target of another test is T1, Neutrophil elastase (Homo sapiens, UniProt P08246).
T1 sequence (P08246 whole entry): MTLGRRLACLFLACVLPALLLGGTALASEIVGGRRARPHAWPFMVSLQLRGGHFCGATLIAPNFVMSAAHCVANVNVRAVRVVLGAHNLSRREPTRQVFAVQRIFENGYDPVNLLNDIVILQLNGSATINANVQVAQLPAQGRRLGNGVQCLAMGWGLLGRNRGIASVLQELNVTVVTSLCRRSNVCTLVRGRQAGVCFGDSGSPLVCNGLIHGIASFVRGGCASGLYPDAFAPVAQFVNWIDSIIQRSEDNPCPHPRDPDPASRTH
Description: Inhibitory activity against human Elastase […].

On to `CC1(C)CC(=O)C(C2=C(O)C(=O)c3ccccc3C2=O)C(=O)C1`, for which the inhibition in test [1] is 11%.

Take `CC(=O)C(C(=O)OC(C)C)C1=C(Cl)C(=O)c2ccccc2C1=O` (centres undefined): 13 µM corresponded to half-maximal inhibition in the test on MRC5 [2] (IC50). `CCOC(=O)C(C(C)=O)C1=C(Cl)C(=O)c2ccccc2C1=O` (centres undefined) yielded an IC50 with MRC5 [3] of 10 µM.

At Neutrophil elastase, `CC(=O)C(C(=O)OCc1ccccc1)C1=C(Cl)C(=O)c2ccccc2C1=O` (centres undefined) had an IC50 of 30 µM.
